Measurements from patent US12037344B2, “NLRP3 modulators” (INNATE TUMOR IMMUNITY, INC., priority 2018, dated 2024).
Where a name gives a salt, the structure may show the parent alone.

Experiments:
THP-1 cells = test: Measurement of IL-1β production, hTRF protocol (second alternative procedure), THP-1 cells; type: cell-based, human; details: Homo sapiens, THP-1, IL-1β production, human cells; read-out: NLRP3 hILIB EC50
Summary of the method: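 THP-1 cells differentiated overnight with 50 ng/ml PMA, then plated at 50,000 cells/well in RPMI with 2% FBS onto serial compound dilutions (top final concentration 10 μM) for 2 hours at 37° C. Supernatant IL-1β measured by hTRF (antibodies at 1:40, overnight at 4° C), read at 665/615 nm against a standard curve.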

TLR7 = biological target: T1, TLR7 (Homo sapiens, UniProt Q9NYK1); test: In vitro human TLR7 binding reporter assay (HEK-Blue, NF-kB/AP1-inducible SEAP); type: cell-based; details: activity range, read-out: TLR7 Agonist EC50
T1 construct: human HEK-Blue cells co-expressing a TLR7 or TLR8 gene
T1 sequence (Q9NYK1 27-1049): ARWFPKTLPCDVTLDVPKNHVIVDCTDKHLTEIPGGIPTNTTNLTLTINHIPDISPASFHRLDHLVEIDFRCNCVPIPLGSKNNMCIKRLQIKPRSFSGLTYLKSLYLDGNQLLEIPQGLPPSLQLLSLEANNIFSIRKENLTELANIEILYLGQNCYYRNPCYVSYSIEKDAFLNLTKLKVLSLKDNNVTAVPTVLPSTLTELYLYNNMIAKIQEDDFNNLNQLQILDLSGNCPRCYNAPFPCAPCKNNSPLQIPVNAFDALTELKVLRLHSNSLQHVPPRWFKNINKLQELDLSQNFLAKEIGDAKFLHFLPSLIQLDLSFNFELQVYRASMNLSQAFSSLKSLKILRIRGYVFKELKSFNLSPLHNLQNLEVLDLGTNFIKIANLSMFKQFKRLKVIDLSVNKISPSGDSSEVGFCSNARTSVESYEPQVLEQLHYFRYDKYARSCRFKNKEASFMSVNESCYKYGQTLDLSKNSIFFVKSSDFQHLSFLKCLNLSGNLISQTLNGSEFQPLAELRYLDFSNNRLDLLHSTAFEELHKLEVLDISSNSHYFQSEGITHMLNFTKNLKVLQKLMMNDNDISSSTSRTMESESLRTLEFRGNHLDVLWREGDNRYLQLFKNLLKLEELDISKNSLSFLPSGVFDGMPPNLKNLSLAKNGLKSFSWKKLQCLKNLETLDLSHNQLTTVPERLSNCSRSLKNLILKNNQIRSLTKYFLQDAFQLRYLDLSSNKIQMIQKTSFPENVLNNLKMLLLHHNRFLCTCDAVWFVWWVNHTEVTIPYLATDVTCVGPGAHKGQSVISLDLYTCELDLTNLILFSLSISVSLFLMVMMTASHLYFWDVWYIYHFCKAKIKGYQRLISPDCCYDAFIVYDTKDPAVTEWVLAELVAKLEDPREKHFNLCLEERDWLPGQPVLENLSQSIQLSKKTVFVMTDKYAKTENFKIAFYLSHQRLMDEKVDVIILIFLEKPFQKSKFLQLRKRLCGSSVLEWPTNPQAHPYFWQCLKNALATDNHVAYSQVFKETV
Summary of the method: (§1)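 Cells are seeded and grown for 24 h. Compounds or DMSO are then added and incubated 18 h at 37 °C. Quanti-Blue is added, and SEAP is read after thirty minutes. EC50 values are normalized, with RLU from 50 μM reference standard setting 100% Ymax.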

TLR8 = biological target: T2, TLR8 (Homo sapiens, UniProt Q9NR97); test: In vitro human TLR8 binding reporter assay (HEK-Blue, NF-kB/AP1-inducible SEAP); type: cell-based; details: activity range, read-out: TLR8 Agonist EC50
T2 construct: human HEK-Blue cells co-expressing a TLR7 or TLR8 gene
T2 sequence (Q9NR97 27-1041): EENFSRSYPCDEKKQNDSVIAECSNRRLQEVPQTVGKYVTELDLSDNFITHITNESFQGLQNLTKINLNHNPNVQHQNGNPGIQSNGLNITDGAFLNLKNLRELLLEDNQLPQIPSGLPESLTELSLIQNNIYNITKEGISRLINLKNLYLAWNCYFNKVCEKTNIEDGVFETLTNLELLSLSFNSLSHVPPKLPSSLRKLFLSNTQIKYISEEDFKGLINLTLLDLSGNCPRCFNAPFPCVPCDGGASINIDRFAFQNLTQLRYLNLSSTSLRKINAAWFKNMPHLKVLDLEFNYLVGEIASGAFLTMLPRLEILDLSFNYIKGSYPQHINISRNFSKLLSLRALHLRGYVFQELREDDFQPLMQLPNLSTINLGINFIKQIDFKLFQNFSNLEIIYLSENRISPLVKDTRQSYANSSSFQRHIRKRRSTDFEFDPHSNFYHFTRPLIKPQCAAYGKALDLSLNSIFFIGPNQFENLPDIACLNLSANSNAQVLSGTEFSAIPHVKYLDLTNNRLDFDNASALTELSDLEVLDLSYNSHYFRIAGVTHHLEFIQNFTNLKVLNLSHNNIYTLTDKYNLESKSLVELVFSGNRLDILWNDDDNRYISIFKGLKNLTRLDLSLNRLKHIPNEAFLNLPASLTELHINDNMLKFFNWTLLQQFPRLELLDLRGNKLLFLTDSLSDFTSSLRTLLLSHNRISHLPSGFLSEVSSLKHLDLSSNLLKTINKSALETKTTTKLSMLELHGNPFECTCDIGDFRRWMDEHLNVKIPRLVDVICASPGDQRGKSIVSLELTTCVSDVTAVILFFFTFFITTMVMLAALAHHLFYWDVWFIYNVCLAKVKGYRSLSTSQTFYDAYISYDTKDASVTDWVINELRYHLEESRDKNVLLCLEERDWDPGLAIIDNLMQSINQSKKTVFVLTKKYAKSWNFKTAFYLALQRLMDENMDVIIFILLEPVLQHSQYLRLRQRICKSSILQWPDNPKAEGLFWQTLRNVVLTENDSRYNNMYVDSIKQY
Summary of the method: as §1

| Compound | EC50 (THP-1 cells) [µM] | EC50 (TLR7) [µM] | EC50 (TLR8) [µM] |
| --- | --- | --- | --- |
| CO[C@@H](CO)Cn1cc2c(n1)c(N)nc1cc(-c3cc[nH]n3)ccc12 [Example 459] | 0.27 | > 100 | > 100 |
| CCS(=O)(=O)N[C@@H](C)Cn1cc2c(N)nc3cc(-c4cc[nH]n4)ccc3c2n1 [Example 465] | 1.9 | > 100 | > 100 |
| N#CCC1(Cn2cc3c(N)nc4cc(-c5cc[nH]n5)ccc4c3n2)CC1 [Example 466] | 0.61 | > 100 | > 100 |
| Cc1nc(C(=O)NC(C)(C)Cn2cc3c(N)nc4cc(-c5cc[nH]n5)ccc4c3n2)co1 [Example 467] | 0.94 | > 100 | > 100 |
| Cc1c(CN2CCOCC2)[nH]c2c1c(N)nc1cc(-c3cc[nH]n3)ccc12 [Example 468] | 1.62 | > 100 | > 100 |
| Cc1c(CN[C@H]2CCOC2)[nH]c2c1c(N)nc1cc(-c3cc[nH]n3)ccc12 [Example 469] | 0.84 | > 100 | > 100 |
| CCN(Cc1[nH]c2c(c(N)nc3cc(-c4cc[nH]n4)ccc32)c1C)C(C)=O [Example 470] | 15.3 | > 100 | > 100 |
| Nc1nc2cc(-c3cc[nH]n3)ccc2c2[nH]c(CN3C[C@@H]4C[C@H]3CO4)cc12 [Example 471] | 0.75 | > 100 | > 100 |
| Nc1nc2cc(-c3cc[nH]n3)ccc2c2[nH]c(CN3C[C@H]4CC[C@@H](C3)O4)cc12 [Example 473] | 0.49 | > 100 | > 100 |
| Nc1nc2cc(-c3cc[nH]n3)ccc2c2[nH]c(CN3[C@@H]4CC[C@H]3COC4)cc12 [Example 474] | 0.45 | > 100 | > 100 |
| CC(=O)N[C@H]1CCN(Cc2cc3c(N)nc4cc(-c5cc[nH]n5)ccc4c3[nH]2)C1 [Example 475] | 1.21 | > 100 | > 100 |
| Nc1nc2cc(-c3cc[nH]n3)ccc2c2[nH]c(CN3CCCC3)cc12 [Example 476] | 0.51 | > 100 | > 100 |
| Nc1nc2cc(-c3cc[nH]n3)ccc2c2[nH]c(CN3CC(F)(F)C3)cc12 [Example 477] | 0.27 | > 100 | > 100 |

These reach a lower EC50 (THP-1 cells). Values come first.

| EC50 (THP-1 cells) [µM] | EC50 (TLR7) [µM] | EC50 (TLR8) [µM] | Compound |
| --- | --- | --- | --- |
| 0.23 | > 100 | > 100 | COCCn1cc2c(N)nc3cc(-c4ccn[nH]4)ccc3c2c1 [Example 456] |
| 0.16 | > 100 | > 100 | Nc1nc2cc(-c3cc[nH]n3)ccc2c2n[nH]cc12 [Example 457, 7-(1H-pyrazol-3-yl)-2H-pyrazolo[4,3-c]quinolin-4-amine] |
| 0.16 | > 100 | > 100 | CN(C)C(=O)Cn1cc2c(N)nc3cc(-c4cc[nH]n4)ccc3c2n1 [Example 458, 2-(4-amino-7-(1H-pyrazol-5-yl)-2H-pyrazolo[4,3-c]quinolin-2-yl)-N,N-dimethylacetamide.TFA] |
| 0.2 | > 100 | > 100 | N#CCCCCn1cc2c(N)nc3cc(-c4cc[nH]n4)ccc3c2n1 [Example 460] |
| 0.25 | > 100 | > 100 | CNC(=O)Cn1cc2c(N)nc3cc(-c4cc[nH]n4)ccc3c2n1 [Example 461] |
| 0.22 | > 100 | > 100 | NC(=O)CCn1cc2c(N)nc3cc(-c4cc[nH]n4)ccc3c2n1 [Example 462] |
| 0.13 | > 100 | > 100 | CS(=O)(=O)CCn1cc2c(N)nc3cc(-c4cc[nH]n4)ccc3c2n1 [Example 463] |
| 0.24 | > 100 | > 100 | N#CC1(Cn2cc3c(N)nc4cc(-c5cc[nH]n5)ccc4c3n2)CC1 [Example 464] |
| 0.23 | > 100 | > 100 | CO[C@H]1CCN(Cc2cc3c(N)nc4cc(-c5cc[nH]n5)ccc4c3[nH]2)C1 [Example 472] |
